Entries after “also recorded” stand apart in the source; their conditions may differ.
Legend:
[1] = tested on: lipid peroxidation in RAW 264.7 cells; experiment: lipid peroxidation by BODIPY 581/591 C11 staining and FACS in RAW 264.7 cells; format: cell-based, murine; conditions: 5 μM, LPS/IFNγ 10 ng/mL of each, 24 h
NO production = experiment: nitric oxide; format: cell-based, murine; conditions: RAW 264.7 cells, 0.2, 1 and 5 μM, LPS/IFNγ 10 ng/mL of each
iNOS = format: cell-based, murine; conditions: 5 μM, RAW 264.7 macrophages activated by LPS and IFNγ (10 ng/mL of each)
NF-κB = experiment: RAW-Blue NF-κB reporter gene assay; format: cell-based, murine; conditions: RAW-Blue macrophages, 0.2, 1 and 5 μM, LPS/IFNγ 10 ng/mL of each
RAW 264.7 macrophages = experiment: protection of RAW 264.7 macrophages from LPS-induced cytotoxicity; conditions: LPS 100 μg/mL, MTS assay
15-LOX-1 = target: T1, 15-LOX-1 (Homo sapiens, UniProt P16050); format: biochemical
T1 sequence (P16050 1-662): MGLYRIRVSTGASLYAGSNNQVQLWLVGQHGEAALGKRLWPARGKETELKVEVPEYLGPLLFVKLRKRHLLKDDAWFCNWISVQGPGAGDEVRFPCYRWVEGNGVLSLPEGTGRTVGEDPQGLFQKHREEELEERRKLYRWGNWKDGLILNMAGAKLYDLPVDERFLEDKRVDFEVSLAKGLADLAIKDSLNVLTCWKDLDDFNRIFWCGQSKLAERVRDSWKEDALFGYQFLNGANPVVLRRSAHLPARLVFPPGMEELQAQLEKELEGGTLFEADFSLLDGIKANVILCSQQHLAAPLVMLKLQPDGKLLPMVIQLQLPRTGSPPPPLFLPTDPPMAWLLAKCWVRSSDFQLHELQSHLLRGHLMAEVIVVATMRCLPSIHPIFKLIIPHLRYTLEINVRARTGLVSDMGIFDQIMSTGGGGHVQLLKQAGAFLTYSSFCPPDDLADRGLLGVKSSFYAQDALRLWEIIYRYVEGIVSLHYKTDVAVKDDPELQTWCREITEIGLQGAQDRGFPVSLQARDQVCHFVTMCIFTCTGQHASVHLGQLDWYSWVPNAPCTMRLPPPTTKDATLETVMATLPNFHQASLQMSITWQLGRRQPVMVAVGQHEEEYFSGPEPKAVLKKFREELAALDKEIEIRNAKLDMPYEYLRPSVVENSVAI

## c1ccc2c(c1)SCc1c-2[nH]c2ccccc12 [PD-146176, reference compound]
[1]
  effect on the boost of lipid peroxides: significantly attenuated

## CCOC(=O)c1[nH]c2cc(Cl)ccc2c1/C=C/C(=O)NCc1ccccc1OC [Compound 9c, Ethyl (E)-6-Chloro-3-(3-((2-methoxybenzyl)amino)-3-oxoprop-1-en-1-yl)-1H-indole-2-carboxylate]
NO production
  inhibition of NO production (total nitrate/nitrite): dose-dependent inhibition
iNOS
  downregulation of iNOS gene expression: approximately 50%
[1]; listed as 9c (i472)
  effect on the boost of lipid peroxides: significantly attenuated; also recorded: clear reduction back to baseline levels
NF-κB
  inhibition of NF-κB transcriptional activation: significant but not complete inhibition
RAW 264.7 macrophages
  effect on viability of LPS-treated RAW 264.7 macrophages, in words: stronger, dose-dependent effects

## CCOC(=O)c1[nH]c2cc(Cl)ccc2c1C(=O)C[C@@H](C)CCCC(C)C [Eleftheriadis-14d]
RAW 264.7 macrophages
  effect on viability of LPS-treated RAW 264.7 macrophages, in words: comparably improved the viability

## CCCNC(=O)c1[nH]c2cc(Cl)ccc2c1CN(C)C [Compound 13, 6-Chloro-3-((dimethylamino)methyl)-N-propyl-1H-indole-2-carboxamide]
15-LOX-1
  potency against 15-LOX-1, in words: complete loss in potency

## CC(c1cc2ccccc2s1)N(O)C(N)=O (stereo not drawn) [Zileuton]
RAW 264.7 macrophages
  effect on viability of LPS-treated RAW 264.7 macrophages, in words: comparably improved the viability

Source: paper PMC6511944 (Journal of Medicinal Chemistry, 2019)
